In publication PMC4608832, “Synthesis of New 4-Aminoquinolines and Evaluation of Their In Vitro Activity against Chloroquine-Sensitive and Chloroquine-Resistant Plasmodium falciparum” (PLoS ONE, 2015):
Read-outs that look alike come from different tables or passages of the source.

Assays:
[1] = system: P. falciparum 3D7 (CQ-sensitive); experiment: In vitro antiplasmodial activity, 3H-hypoxanthine incorporation, strain 3D7; type: cell-based; details: Plasmodium falciparum, IC50 ± SD
Method: (§1) The following strains of Plasmodium falciparum were used in this study: F32 (Tanzania), Dd2 (SE Asia), K1 (SE Asia), FcB1 (Colombia), K14 (Cambodia) and 3D7 (Africa). […] Parasites at the ring stage (laboratory A) or asynchronous parasites (laboratory B) were grown in human A+ or O+ red blood cells at a 1.5% (laboratory A) or 2% (laboratory B) haematocrit and a 0.8–1% parasitaemia. Synchronization of the parasites was performed by sorbitol treatment.
(§2) Further dilutions were in complete culture medium. The complexes were tested for their inhibitory effect toward P. falciparum intraerythrocytic development. […] 100 μL from a culture at a 3% (laboratory A) or 4% (laboratory B) hematocrit in complete medium was added per well. […] Plates were freeze-thawed and harvested on filters. […] The percentage of growth inhibition was calculated from the parasite-associated radioactivity. 100% ^3H-hypoxanthine incorporation was determined from a control grown in the absence of drug or test compound.

[2] = system: P. falciparum Dd2; experiment: In vitro antiplasmodial activity, 3H-hypoxanthine incorporation, strain Dd2; type: cell-based; details: Plasmodium falciparum, IC50 ± SD
Method: as §1, §2

[3] = system: P. falciparum K1 (CQ-resistant); experiment: In vitro antiplasmodial activity, 3H-hypoxanthine incorporation, strain K1; type: cell-based; details: Plasmodium falciparum, IC50 ± SD
Method: as §1, §2

[4] = system: P. falciparum F32 (CQ-sensitive); experiment: In vitro antiplasmodial activity, 3H-hypoxanthine incorporation, strain F32; type: cell-based; details: Plasmodium falciparum
Method: as §1, §2
(§3) IC50 ± SD values (nM) determined from independent experiments performed in triplicate under the conditions of laboratory B (Paris).

[5] = system: P. falciparum K14 (CQ-resistant); experiment: In vitro antiplasmodial activity, 3H-hypoxanthine incorporation, strain K14; type: cell-based; details: Plasmodium falciparum
Method: as §1, §2, §3

[6] = system: P. falciparum FcB1 (CQ-resistant); experiment: In vitro antiplasmodial activity, 3H-hypoxanthine incorporation, strain FcB1; type: cell-based; details: Plasmodium falciparum
Method: as §1, §2, §3

[7] = Cytotoxicity, MTT, L6 cells; type: cell-based; details: rat, L-6 cells, concentration inducing 50% of cell growth arrest, three days
Method: (§4) The rat L-6 and human MRC-5 cell lines were routinely grown in RPMI 1640 supplemented with 11 mM glucose, 27.5 mM NaHCO3, 100 UI/mL penicillin, 100 μg/mL streptomycin and 10% fetal calf serum (RPMI-FCS), in a 5% CO2 incubator at 37°C. For cytotoxicity assays, 100 μL per well of a 2×10^4 cells/mL suspension in RPMI-FCS were deposited in a 96-well microplate and incubated overnight in culture conditions. Then decreasing concentrations of the compounds to test were established by twofold serial dilutions in RPMI-FCS and distributed at a rate of 100 μL per well and the microplate was put back in the incubator for an additional three (L-6) or five (MRC-5) day period. Then the supernatant in each well was discarded and replaced by 100 μL of MTT 1 mg/mL in RPMI-FCS. The microplate was re-incubated in culture conditions for three hours, then 100 μL of 10% SDS was added by well. The cells were left overnight in the incubator then the OD at 540nm was measured with the Bio-Tek FL600™ microplate reader equipped with the KC4™ software. […] The selectivity of each compound to P. falciparum was assessed through the selectivity index (SI), defined as CC50 (to L6 or MRC5 cells) / IC50 (to P. falciparum).

[8] = Cytotoxicity, MTT, MRC5 cells; type: cell-based; details: human, MRC-5 cells, concentration inducing 50% of cell growth arrest, five days
Method: as §4

[9] = In vitro microsomal metabolic stability; details: for microsomal CLint at 1 μM / half-life at 1 μM: human; for microsomal CLint at 1 μM: pH 7.4
Method: The evaluation of microsomal stability was performed by Cyprotex US, LLC, Watertown, MA. […] After separation on an HILIC HPLC colum (Sepax HILIC […] 2.1 x 30 mm) using an acetonitrile-water gradient system, peaks were analyzed by mass spectrometry (MS) using ESI ionization in MRM mode. The signal was optimized for each compound by ESI positive or negative ionization mode. An MS2 scan or an SIM scan was used to optimize the fragmenter voltage and a product ion analysis was used to identify the best fragment for analysis, and the collision energy was optimized using a product ion or MRM scan. An ionization ranking was assigned indicating the compound’s ease of ionization.
A control reaction omitting NADPH was performed for each compound in order to detect any NADPH-independent degradation. Aliquots were removed at 0, 10, 20, 40, and 60 min and mixed with an equal volume of ice-cold Stop Solution (methanol containing haloperidol, diclofenac, or other internal standard). The stopped reactions were further incubated for at least 10 min at -20°C, and an additional volume of water was added. The samples were centrifuged to remove precipitated protein, and the supernatants were analyzed by LC/MS/MS to quantify the remaining parent. Data were converted to % remaining by dividing by the time zero concentration value, and fitted to a first-order decay model to determine half-life values. Intrinsic clearance values were calculated from the half-life and protein concentrations by using the equation CLint = ln 2 / t1/2 [microsomal protein].

[10] = 3D7, laboratory A (Marseille), 5% CO2, 10% O2, 85% N2, read-out: Antiplasmodial activity, IC50, 3D7
[11] = 3D7, laboratory B (Paris), candle jar ~17% O2, 3% CO2, 80% N2, read-out: Antiplasmodial activity, IC50, 3D7
[12] = DD2, laboratory A (Marseille), 5% CO2, 10% O2, 85% N2, Dd2 CQ-resistant under these conditions, read-out: Antiplasmodial activity, IC50, Dd2
[13] = DD2, laboratory B (Paris), candle jar ~17% O2, 3% CO2, 80% N2, Dd2 CQ-sensitive under these conditions, read-out: Antiplasmodial activity, IC50, Dd2
[14] = K1, laboratory A (Marseille), 5% CO2, 10% O2, 85% N2, read-out: Antiplasmodial activity, IC50, K1
[15] = K1, laboratory B (Paris), candle jar ~17% O2, 3% CO2, 80% N2, read-out: Antiplasmodial activity, IC50, K1
[16] = F32, laboratory B (Paris), IC50 ± SD, read-out: Antiplasmodial activity, IC50, F32
[17] = FCB1, laboratory B (Paris), IC50 ± SD, read-out: Antiplasmodial activity, IC50, FcB1
[18] = human liver microsomes, pH 7.4, NADPH-dep. t1/2, human liver microsomes, [Compd] = 1 μM, [protein] = 0.3 mg/mL, with NADPH
[19] = human liver microsomes, pH 7.4, NADPH-free t1/2, human liver microsomes, [Compd] = 1 μM, [protein] = 0.3 mg/mL, without NADPH
[20] = laboratory B (Paris), IC50 ± SD, read-out: Antiplasmodial activity, IC50, K14

Row | Structure (SMILES) | IC50 [1, 10] [nM] | IC50 [1, 11] [nM] | IC50 [2, 12] [nM] | IC50 [2, 13] [nM] | IC50 [3, 14] [nM] | IC50 [3, 15] [nM] | IC50 [4, 16] [nM] | IC50 [6, 17] [nM] | CC50 at 3 days [7] [nM] | CC50 at 5 days [8] [nM] | microsomal CLint at 1 μM ([9]; human liver microsomes) [µL/min/mg] | half-life at 1 μM [9, 18] [h] | half-life at 1 μM [9, 19] [h] | IC50 [5, 20] [nM] | further results
1 | CCN(CC)Cc1ccc(-c2ccc(CNc3ccnc4cc(Cl)ccc34)cc2)cc1 [Compound 4, 7-Chloro-N-((4’-((diethylamino)methyl)-[1,1’-biphenyl]-4-yl)methyl)quinolin-4-amine] | 15.2 ± 1.57 | 12.9 ± 0.85 | 20.7 ± 0.2 | 14.4 ± 0.5 | 53.4 ± 2.03 | 11.8 ± 1 | 16.9 ± 1 | 17.9 ± 1.7 | 2800 ± 150 | 2600 ± 120 | 466 ± 44 | ~0.0833 | > 4 | – | IC50 ([5]; under conditions A (as printed in text), read-out: IC50 against K14 strain): 7.5 nM
2 | CCN(CC)Cc1ccc(CNc2ccnc3cc(Cl)ccc23)cc1 [Compound 3, 7-Chloro-N-(4-((diethylamino)methyl)benzyl)quinolin-4-amine] | 17.3 ± 0.58 | 16.1 ± 2.44 | 30.5 ± 2.12 | 17.7 ± 3.78 | 60.3 ± 4.07 | 12.4 ± 0.4 | 24.3 ± 2.9 | 31.5 ± 5.7 | 13800 ± 1900 | 13000 ± 2260 | 51.1 ± 3.06 | 0.755 ± 0.0227 | > 4 | 33 ± 5.76 | –
3 | CCN(CC)CCCC(C)Nc1ccnc2cc(Cl)ccc12 (centres unmarked) [CQ, chloroquine] | – | – | – | – | – | – | – | – | – | – | – | – | – | – | IC50 ([1]; 3D7, read-out: Antiplasmodial activity, IC50, 3D7, laboratory A (Marseille), 5% CO2, 10% O2, 85% N2): 17.6 ± 0.71 nM; IC50 ([1]; 3D7, read-out: Antiplasmodial activity, IC50, 3D7, laboratory B (Paris), candle jar ~17% O2, 3% CO2, 80% N2): 18 ± 12.3 nM; IC50 ([2]; DD2, read-out: Antiplasmodial activity, IC50, Dd2, laboratory A (Marseille), 5% CO2, 10% O2, 85% N2, Dd2 CQ-resistant under these conditions): 522 ± 95.7 nM; IC50 ([2]; DD2, read-out: Antiplasmodial activity, IC50, Dd2, laboratory B (Paris), candle jar ~17% O2, 3% CO2, 80% N2, Dd2 CQ-sensitive under these conditions): 35.1 ± 12.1 nM; IC50 ([3]; K1, read-out: Antiplasmodial activity, IC50, K1, laboratory A (Marseille), 5% CO2, 10% O2, 85% N2): 1090 ± 164 nM; IC50 ([3]; K1, read-out: Antiplasmodial activity, IC50, K1, laboratory B (Paris), candle jar ~17% O2, 3% CO2, 80% N2): 124 ± 48 nM; IC50 ([4]; F32, read-out: Antiplasmodial activity, IC50, F32): 33.9 ± 12.3 nM; IC50 ([5]; read-out: Antiplasmodial activity, IC50, K14): 103 ± 92.5 nM; IC50 ([6]; FCB1, read-out: Antiplasmodial activity, IC50, FcB1): 111 ± 43 nM; NADPH-dep. t1/2 ([9]; human liver microsomes, [Compd] = 1 μM, [protein] = 0.3 mg/mL, with NADPH): 2.22 ± 0.2587 h; microsomal CLint at 1 μM ([9]; microsomes): 17.5 ± 2.03 µL/min/mg; half-life at 1 μM ([9]; microsomes, pH 7.4, NADPH-dep. t1/2, human liver microsomes, [Compd] = 1 μM, [protein] = 0.3 mg/mL, with NADPH): 2.22 ± 0.258 h; half-life at 1 μM ([9]; microsomes, pH 7.4, NADPH-free t1/2, human liver microsomes, [Compd] = 1 μM, [protein] = 0.3 mg/mL, without NADPH): > 4 h
4 | CCN(CC)Cc1cccc(CNc2ccnc3cc(Cl)ccc23)c1 [Compound 2, 7-Chloro-N-(3-((diethylamino)methyl)benzyl)quinolin-4-amine] | 18.4 ± 0.66 | 17.1 ± 2.97 | 26.5 ± 5.07 | 17.1 ± 1.72 | 64.2 ± 6.16 | 12 ± 1.15 | 14.7 ± 0.45 | 30.3 ± 1.7 | 20600 ± 3920 | 20300 ± 3400 | 56.2 ± 0.55 | 0.685 ± 0.00683 | > 4 | 23.6 ± 1.73 | –
5 | CCN(CC)Cc1ccccc1CNc1ccnc2cc(Cl)ccc12 [Compound 1, 7-Chloro-N-(2-((diethylamino)methyl)benzyl)quinolin-4-amine] | 13.5 ± 0.71 | 21.6 ± 3.11 | 21.3 ± 2.52 | 19.4 ± 2.18 | 52.7 ± 0.99 | 14.6 ± 0.36 | 30 ± 15.2 | 12.1 ± 1.2 | 27700 ± 1730 | 26400 ± 1750 | 45.6 ± 0.12 | 0.848 ± 0.00917 | > 4 | 13.5 ± 4.66 | –
6 | CCN(CC)CC1=C(CNc2ccnc3cc(Cl)ccc23)CC=CC1 [Compound 5, 7-Chloro-N-((2-((diethylamino)methyl)cyclohexa-1,4-dien-1-yl)methyl)quinolin-4-amine] | – | – | 59 ± 1.85 | – | 63.7 ± 1.46 | 20.2 ± 6.55 | 25.4 ± 5.31 | – | – | – | – | – | – | 18.7 ± 1.16 | –
